The results in this text go back to US6699877B2 (Gruenenthal GmbH, priority 2000, dated 2004).

Assay [1] relates to formalin-induced nociception. The experiment in a line: Formalin test, rat (second/late phase). Format: in vivo. Conditions: i.p., 21.5 mg/kg, late phase. The protocol:
Experiments to determine the antinociceptive activity of the compounds according to the invention of Formula I were carried out in the formalin test on male rats (Sprague-Dawley, 150-170 g).
In the formalin test, the first (early) phase (0-15 min after formalin injection) was distinguished from the second (late) phase (15-60 min after formalin injection) (D. Dubuisson, S. G. Dennis, Pain 4, 161-174 (1977)). The early phase, as a direct reaction to the formalin injection, represents a model for acute pain while the late phase is considered as a model for persistent (chronic) pain (T. J. Coderre, J. Katz, A. L. Vaccarino, R. Melzack, Pain, Vol. 52, p. 259,1993).
The compounds according to the invention were investigated in the second phase of the formalin test to obtain information about the effects of substances in chronic/inflammatory pain.
A nociceptive reaction was induced in freely moving experimental animals by a single subcutaneous formalin injection (50 μl, 5%) into the dorsal side of the back right paw, the nociceptive reaction being portrayed by the following behavioral parameters: lifting and holding the respective paw (Score 1), shaking and twitching (Score 2), licking and biting (Score 3). The different behavioral patterns triggered by the formalin injection were recorded continuously by observing the animals in the late phase of the formalin test and were weighted differently in an evaluation. Normal behavior in which the animal loads all four paws uniformly was recorded as score 0. The moment of administration prior to the formalin injection was selected according to the method of administration of the compounds according to the invention (intraperitoneal: 15 min, intravenous: 5 min). The described behavioral patterns (Score 1 to 3) in the animals are reduced and possibly even eliminated after injection of substances which have an antinociceptive effect in the formalin test. A comparisom was made with control animals which had received vehicles (solvents) prior to formalin administration. The nociceptive behavior was calculated as a so-called pain rate (PR). The various behavioral parameters received a different weighting (Factor 0, 1, 2, 3). Calculation took place at partial intervals of 3 min according to the following formula:
Substance and vehicle groups include n=10 animals in each case. The effect of the substance was determined as a percentage change versus control on the basis of the PR calculations. The ED50 calculations were made by regression analysis.

For assay [2], the target named is T1, glycine binding site of the NMDA receptor channel (Rattus norvegicus, UniProt P35439).
T1 construct: from tissue; host or cells: rat brain cortex and hippocampus membrane homogenate
The experiment in a line: Receptor binding, displacement of (3H)-MDL 105.519 on rat cerebral membrane homogenates. The settings on record: 10 μmol/l test substance; 1 nmol/l (3H)-MDL 105.519; read-out: Displacement (%, 10 μmol/l) of radioactive ligand from specific binding. As for the experimental part: Receptor Binding (Glycine Binding Site of the NMDA Receptor Channel)
Experiments to determine the affinity of the compounds according to the invention of Formula I to the glycine binding site of the NMDA receptor channel were carried out on cerebral membrane homogenates (homogenate of Cortex- and Hippocampus-Areal from the brain of male rats, Wistar strain) (B. M. Baron, B. W. Siegel, B. L. Harrison, R. S. Gross, C. and P. Towers, Journal of Pharmacology and Experimental Therapeutics, Vol. 279, p. 62, 1996).
For this purpose, Cortex and Hippocampus from freshly removed rats' brains were dissected, homogenized in 5 mmol/l TRIS-acetate buffer, 0.32 mol/l sacharose pH 7.4 (10 ml/g fresh weight) with a Potter homogenizer (made by Braun/Melsungen, 10 piston strokes at 500 rpm) while cooling with ice and subsequently centrifuged for 10 minutes at 1,000 g and 4° C. The first supernatant material was collected and the sediment homogenized again with […] TRIS-acetate buffer, 0.32 mol/l safcharose pH 7.4 (5 ml/g original fresh weight) using the Potter homogenizer (10 piston strokes at 500 rpm) while cooling with ice and centrifuged for 10 minutes at 1,000 g and 4° C. The resultant supernatant material was combined with the supernatant material from the first centrifugation and centrifuged at 17,000 g for 20 minutes at 4° C. The supernatant material after this centrifugation was discarded, the membrane sediment taken up with 5 mmol/l TRIS-acetate buffer pH 8.0 (20 ml/g original fresh weight) and homogenized with 10 piston strokes at 500 rpm.
The membrane homogenate was then incubated for 1 hour at 4° C. and centrifuged for 30 minutes at 50,000 g and 4° C. The supernatant material was discarded and the centrifuge tube with the membrane sediment sealed with parafilm and frozen for 24 hours at −20° C. The membrane sediment was thawed on the following day, taken up with ice-cold 5 mmol/l TRIS-acetate buffer, 0.1% saponin (w/v) pH 7.0 (10 ml/g original fresh weight), homogenized with 10 piston strokes at 500 rpm and subsequently centrifuged for 20 minutes at 50,00 g and 4° C. The resultant supernatant material was discarded, the sediment taken up in a small volume with 5 mmol/l TRIS-acetate buffer pH 7.0 (about 2 ml/g original fresh weight) and homogenized again with 10 piston strokes at 500 rpm. After determining the protein content, the membrane homogenate was adjusted to a protein concentration of 10 mg protein/ml using 5 mmol/l TRIS-acetate buffer pH 7.0 and frozen in aliquots for testing.
For the receptor binding test, aliquots were thawed, diluted 1:10 with 5 mmol/l TRIS-acetate buffer pH 7.0, homogenized with 10 piston strokes at 500 rpm using the potter homogenizer (10 piston strokes at 500 rpm) while cooling with ice and centrifuged for 60 minutes at 55,000 g at 4° C. The supernatant material was decanted, the membrane sediment adjusted to a protein concentration of 1 mg/ml with ice-cold 50 mmol/l TRIS-acetate buffer pH 7.0, homogenized again with 10 piston strokes at 500 rpm and kept in suspension in the ice bath while stirring on a magnetic stirrer. 100 μl of this membrane homogenate per 1 ml of feedstock was used in each case in the receptor binding test (0.1 mg protein/ml in the final batch).
In the binding test, 50 mmol/l TRIS-acetate buffer pH 7.0 was used as buffer and 1 nmol/l (^3H)-MDL 105.519 (B. M. Baron et al 1996) was used as radioactive ligand. The proportion of unspecific binding was determined in the presence of 1 mmol/l glycine.
In further batches, the compounds according to the invention were added in concentration series and the displacement of the radioactive ligand from its specific binding to the glycine binding site of the NMDA receptor channel determined. The respective triple batches were incubated for 120 minutes at 4° C. and then harvested to determine the radioactive ligands bound to the membrane homogenate by filtration through glass fiber filter mats (GF/B). […]

As to `CCOC(=O)C1CC(c2cccc(Cl)c2)c2c(Cl)cc(Cl)cc2N1` (stereo not shown) [Example 34, 5,7-dichloro-4-(3-chlorophenyl)-1,2,3,4-tetrahydroquinoline-2-carboxylic Acid Ethyl Ester], the “% inhibition of formalin-induced nociception” value in assay [1] stood at 53.1%. Moreover, the inhibition at 10 µM in assay [2] turned out to be 32%.
Taken in the same sequence, the figures for `CCOC(=O)C1CC(c2ccc(Cl)cc2)c2c(Cl)cc(Cl)cc2N1` (stereo not shown) [Example 35, 5,7-dichloro-4-(4-chlorophenyl)-1,2,3,4-tetrahydroquinoline-2-carboxylic Acid Ethyl Ester] were 21.9% and 32%.
